In patent US20100022626A1, “Modulators of cell migration and methods of identifying same” (priority 2005, published 2010):

System: H1299 cells
Test: Phagokinetic track (PKT) assay of H1299 cells treated with cytoskeletal drugs
Assay type: cell-based
Settings: for Track area: 4 μM Latrunculin A, 2.5 μM Nocodazole or 100 ng/ml PMA, 5 h total; for Track area / Axis ratio / Effective velocity / Major axis / Migration velocity / Minor axis / Perimeter / Roughness / Solidity: mean ± SD; for Effect on cell motility (montage images, FIG. 6): Latrunculin A 4 μM, Nocadazole 2.5 μM, PMA 100 ng/ml; for PKT area compared to control cells: Latrunculin/Nocodazole p=~0, PMA p<0.05; for Axis ratio / Effective velocity / Major axis / Migration velocity / Minor axis / Perimeter / Roughness / Solidity: same treatments
Procedure: Preparation of 96-wellplates: Glass-bottom 96-well plates (Cat. # 7706-2370, Whatmann, Inc., Clifton, N.J., USA) were treated for 2 hours at room temperature with 50 μl of 10 μg/ml fibronectin solution dissolved in PBS (Fibronectin, F-1141; Sigma Chemical Co., St Louis, Mo., USA). The wells were then washed twice with PBS and coated with 340 nm diameter white polystyrene latex beads (Product no. 2-300; batch no. 1344); Interfacial Dynamics Corporation-Molecular Probes Microspheres Technologies, USA. The bead suspension (3.2 ml) was centrifuged for 5 minutes at 20,800×g, and resuspended in 4 ml PBS by vortex, until all visible bead clumps were dispersed. The sedimentation procedure was then repeated, after which the beads were resuspended in 7 ml PBS, to a final concentration of […]. Aliquots of 70 μl of the bead suspension were added to each well, pre-coated with fibronectin, in the 96-well plate, and incubated at 37° C. for 2 hours, followed by gentle washing (×5 times) with PBS using a plate washer (Colombus Plus, Tecan, Switzerland). Before cells were plated, the PBS was replaced with 50 μl culture medium suitable for the particular cell type used in the assay (see FIG. 1).
Cell preparation for the phagokinetic track assay: MCF7 (ATCC-HTB-22), MDA-MB-231 (ATCC-HBT-26), and B16-F10 (ATCC-CRL-6475) cells were grown in Dulbeco's Modified Eagle's Medium (DMEM). H1299 cells (ATCC-CRL-5803) were grown in RPMI-1640. Both culture media were supplemented with 10% FCS, 2 mM glutamine, 100 international units/ml penicillin and 100 μg/ml streptomycin (Biological Industries, Beit Haemek, Israel), and placed in a 5% CO2 humidified incubator kept at 37° C. For the PKT assay, 200-400 cells (a 50 μl volume) were cultured in each well. Depending on the track dimensions, the number of the plated cells was calibrated to maximize the number of single cell tracks, yet minimize the number of intersecting tracks.
Phagokinetic track assay: In order to characterize the motile behavior of the various cell lines, MCF7, MDA-MB-231, B16-F10 and H1299 cells were plated on a monolayer of polystyrene beads. All were incubated at 37° C., 5% CO2 for 7 hours, except for the H1299 cells, which were incubated for 5 hours. The first three cell lines were grown in DMEM, and H1299 cells were grown in RPMI 1640 medium, Both media were supplemented with 10% FCS and penicillin/streptomycin antibiotic. At the end of the incubation period, cells were fixed with 3% PFA. Images were taken with a 10× objective, using the autofocus screening microscope system.
Automated microscopy: Commercially-available plates display large deviations from a plane, often exceeding 200 μm, which require adjustment of the focal plane for every image. Commonly-used autofocusing procedures, which are based on finding the highest contrast image among a focal series, are slow and not robust, particularly when low-contrast images, such as those yielded by a monolayer of micro-beads, are used. The phagokinetic tracks were therefore recorded using a cell-screening microscope described in detail (Paran et al., Methods in Enzymology, in press). The rapid, automated collection of sharp, in-focus PKT images was aided by a laser autofocus device (Liron et al., 2006, J Microsc 221, 145-51). The laser autofocus device enables precise location of the substrate surface, and guarantees sharp definition of track boundaries.
The microscope operating program and the image acquisition software was written (In-house) as an application within the UCSF Priism environment (http://msg.ucsf.edu/ive). The microscope includes a computer-controlled plate scanning stage (Prior, Cambridge UK) that defines the pattern of coverage of the well area by the individual images. For this application, images were taken using a 10×/0.4 objective, and adjacent fields were stitched together, forming a montage of the entire well, or any desired fraction of the well area. […]

`CCCCCCCCCCCCCC(=O)O[C@@H]1[C@@H](C)[C@@]2(O)[C@@H](C=C(CO)C[C@]3(O)C(=O)C(C)=C[C@@H]23)[C@@H]2C(C)(C)[C@]12OC(C)=O` [PMA, Phorbol 12-mirysyate 13-acetate] was tested, and the Track area was 14300 ± 9100 μm^2, the “Effect on cell motility (montage images, FIG. 6)” value (shortened to “Effect on cell motility”) (in words) was “increase in cell motility” and the “Axis ratio compared to control cells” value (in words) was “did not significantly differ”. For the same molecule, the “Effective velocity compared to control cells” value (in words) was “did not significantly differ”, the “Major axis compared to control cells” value (in words) was “did not significantly differ” and the “Migration velocity compared to control cells” value (in words) was “increased”. The “Minor axis compared to control cells” value (in words) was “did not significantly differ”, the “Roughness compared to control cells” value (in words) was “increased” and the “PKT area compared to control cells” value (in words) was “increased”. For the same molecule, the “Solidity compared to control cells” value (in words, p<0.05) was “increased”, the Axis ratio was 2.1 ± 0.9 and the Effective velocity was 46 ± 21 μm/h. For the same molecule, the Major axis was 220 ± 104 μm, the Migration velocity was 59 ± 26 μm/h and the Minor axis was 108 ± 42 μm. It also gave a Perimeter of 695 ± 350 μm, a Roughness of 2.9 ± 1.4 and a Solidity of 0.8 ± 0.1.
For `C/C1=C/C(=O)O[C@@H]2C[C@@H](CC[C@H](C)/C=C\C=C\CC1)O[C@@](O)([C@@H]1CSC(=O)N1)C2` [Latrunculin A], the Track area was 5900 ± 3500 μm^2, the “Effect on cell motility” value (in words) was “inhibited cell motility” and the “Axis ratio compared to control cells” value (in words) was “reduced”. The “Migration velocity compared to control cells” value (in words) was “reduced”, the “Roughness compared to control cells” value (in words) was “decreased” and the “PKT area compared to control cells” value (in words) was “reduced”. The Axis ratio was 1.5 ± 0.4, the Effective velocity was 8 ± 5 μm/h and the Major axis was 121 ± 44 μm. The Migration velocity was 10 ± 6 μm/h, the Minor axis was 79 ± 19 μm and the Perimeter was 380 ± 150 μm. It also gave a Roughness of 2.0 ± 0.7 and a Solidity of 0.9 ± 0.07.
For `COC(=O)Nc1nc2ccc(C(=O)c3cccs3)cc2[nH]1` [Nocodazole], the Track area was 6100 ± 3600 μm^2, the “Effect on cell motility” value (in words) was “inhibited cell motility” and the “Axis ratio compared to control cells” value (in words) was “reduced”. For the same molecule, the “Migration velocity compared to control cells” value (in words) was “reduced”, the “Roughness compared to control cells” value (in words) was “decreased” and the “PKT area compared to control cells” value (in words) was “reduced”. The Axis ratio was 1.6 ± 0.4, the Effective velocity was 14 ± 8 μm/h and the Major axis was 123 ± 43 μm. For the same molecule, the Migration velocity was 17 ± 11 μm/h, the Minor axis was 78 ± 18 μm and the Perimeter was 385 ± 140 μm. For the same molecule, the Roughness was 2.1 ± 0.9 and the Solidity was 0.9 ± 0.07.
